“And” between values parts separate entries of the source, which are not always exact repeats. Equal entries are not always repeated.
Experiments:
Petunia FMT (E20) [1] = experiment: Methyltransferase assay (14C-SAM, TLC) of crude homogenate of E. coli containing pCGP3086; type: biochemical, Petunia hybrida; set-up: key to Petunidin (product on TLC) / Malvidin (product on TLC): yes = detection of product on TLC; no = no reaction observed as determined by absence of product
Experimental: 10 mLs of LB containing ampicillin at 100 μg/mL and kanamycin at 25 μg/mL. (LB/Amp100+Kan25) were inoculated with a single colony of pCGP3086 or pQE30 in M15 (pREP4) cells. […] IPTG was then added to a final concentration of 1 mM and the culture was further incubated at 30° C. with shaking for 8 hours. The cells were pelleted by centrifugation at 3500 rpm for 10 minutes at 4° C. The pellet was resuspended in 1 mL of 0.1 M NaPi, pH 7.5, 4 mM MgCl2. […] The mixture was then sonicated for two bursts of 10 seconds at output 2-3 and then incubated on ice for 30 minutes. The cell debris was pelleted by centrifugation at 14,000 rpm for 20 minutes at 4° C. The supernatant was passed through a NAP-10 column (Pharmacia) and 1.5 mL of the sample collected in 0.1 M NaPi, pH 7.5, 4 mM MgCl2. […] (1983), supra. Methyltransferase assays were set up according to Table 10 in a total reaction volume of 50 μL. […] The assay reactions were incubated at 30° C. for 30 minutes. Fifty microlitres of a chloroform mix (CHCl3:methanol/1% HCl, 2:1) was added and the mixture was then vortexed to stop the reactions. […] The tube was then placed in a boiling waterbath for 30 minutes and the contents subsequently desiccated under vacuum.

Torenia FMT (TFMT) = experiment: HPLC assay of methyltransferase activity, E. coli extract containing pCGP3090; type: biochemical, Torenia hybrida; conditions: for product of flavonoid methyltransferase activity with the substrate: Torenia FMT in pCGP3090, to a lesser degree petunidin; for % of anthocyanidin detected cya / % of anthocyanidin detected del / % of anthocyanidin detected mal / % of anthocyanidin detected peo / % of anthocyanidin detected pet: pCGP3090 (TFMT), percentage of total anthocyanidins
Experimental: (§1) The assay reactions were incubated at 30° C. for 30 minutes. Fifty microlitres of a chloroform mix (CHCl3:methanol/1% HCl, 2:1) was added and the mixture was then vortexed to stop the reactions. The phases were separated by centrifugation at 13,000 rpm for 5 minutes and 50 μL of the upper phase was transferred into a clean tube and the contents subsequently hydrolysed by the addition of 12.5 μL of 10M HCl. The tube was then placed in a boiling waterbath for 30 minutes and the contents subsequently desiccated under vacuum. The residue was resuspended in 2-3 μL of methanol/1% HCl and spotted onto a TLC plate alongside standard samples of petunidin, malvidin and delphinidin. The anthocyanidins were separated in a Forestal system (HOAc:water:HCl; 30:10:3) (Markham, Techniques of flavonoid identification, Academic Press, London, 1982) and the TLC was exposed to an autoradiographic film (Kodak) for 16 hours at −70° C.
(§2) Anthocyanidins in the reaction mixture were analysed by HPLC via gradient elution using gradient conditions of 50% B to 60% B over 10 minutes, then 60% B for 10 minutes and finally 60% B to 100% B over 5 minutes where solvent A consisted of TFA:H2O (5:995) and solvent B consisted of acetonitrile:TFA:H2O (500:5:495). An Asahi Pac ODP-50 cartridge column (250 mm×4.6 mm ID) was used for the reversed phase chromatographic separations. […].
(§3) The enzyme activities of the peptides encoded by Petunia and Torenia FMT cDNA clones in pCGP3086 and pCGP3090, respectively were further assessed using the substrates delphinidin 3-glucoside and delphinidin 3-rutinoside and delphinidin 3,5-diglucoside under assay conditions as previously described (Table 15, Example 9) except that the ^14C-labelled SAM was replaced with non radioactive SAM at 2 mg/mL and the substrates (delphinidin 3-glucoside and delphinidin 3-rutinoside and delphinidin 3,5-diglucoside) at 2 mg/mL.

Petunia FMT (E20) [2] = experiment: HPLC assay of methyltransferase activity, E. coli extract containing pCGP3086; type: biochemical, Petunia hybrida; conditions: for product of flavonoid methyltransferase activity with the substrate: Petunia FMT (E20) in pCGP3086, to a lesser degree malvidin; for % of anthocyanidin detected cya / % of anthocyanidin detected del / % of anthocyanidin detected mal / % of anthocyanidin detected peo / % of anthocyanidin detected pet: pCGP3086 (PFMT), percentage of total anthocyanidins
Experimental: as §1, §2, §3

rose petals = experiment: Incubation of excised rose petal segments with precursors or end products; type: cell-based, Rosa hybrida; conditions: around 16 hours; for Color at cut edge after incubation in DHM: around 23° C.; for Color at cut edge upon production of delphinidin: incubation in dihydromyricetin 1-2 mg/mL
Experimental: To determine whether rose petals contained the enzymes necessary for conversion of dihydromyricetin to delphinidin, precursor-feeding experiments with dihydromyricetin were initiated.
Petal segments of a selection of commercial cultivars of roses (Toplesse, Lambada, Medeo, Pamela, Sonia, Oceana, Mystique) were placed in solutions of 1-2 mg/mL dihydromyrectin or water only and incubated for around 16 hours in a growth room at a temperature of around 23° C. Pink/purple colors were observed near the cut edges of the petals (Table 6).
Petal segments of roses were placed in solutions of 1-2 mg/mL malvidin 3,5-diglucoside, 1-2 mg/mL dihydromyrectin or water only and incubated for around 16 hours in a growth room at a temperature of around 23° C. The production of colors in the purple range were observed near the cut edges of the petals upon incubation with dihydromyrectin or malvidin 3,5-diglucoside (Table 7).

[3] = Reconstruction experiments: anthocyanins added to petal juice of Medeo roses; type: physicochemical, Rosa hybrida
Experimental: The rose cultivar Medeo generally produces cream-colored to pale apricot flowers (RHSCC 158C to 159A). […] The estimated vacuolar pH of Medeo petals is around 4.6. The petal juice of Medeo roses was extracted by grinding one petal with 50 μL of water using a mortar and pestle. The petal juice was collected and mixed with 10-20 μL of 1-2 mg/g delphinidin 3-glucoside, delphinidin 3,5-diglucoside and malvidin 3,5-diglucoside. The colors observed were described according to the Royal Horticultural Society Color Charts (RHSCC) (The Royal Horticultural Society, London) (Table 8).

[4] = pCGP3086 crude homogenate + 14C-SAM (Table 16, positive control)
[5] = pCGP3086 crude homogenate + 14C-SAM, 30° C., 30 minutes (Table 11)
[6] = pCGP3090, substrate 2 mg/mL, SAM 2 mg/mL, duplicate a/b
[7] = pCGP3086, substrate 2 mg/mL, SAM 2 mg/mL, duplicate a/b
[8] = rose cultivar Lambada (orange petal), 1-2 mg/mL
[9] = rose cultivar Toplesse (pink petal), 1-2 mg/mL
[10] = duplicate a/b, listed as D3, 5G
[11] = pCGP3090, substrate 2 mg/mL, SAM 2 mg/mL, duplicate a/b, listed as D3, 5G

SMILES: C[C@@H]1O[C@@H](OC[C@H]2O[C@@H](Oc3cc4c(O)cc(O)cc4[o+]c3-c3cc(O)c(O)c(O)c3)[C@H](O)[C@@H](O)[C@@H]2O)[C@H](O)[C@H](O)[C@H]1O [D3R, delphinidin 3-rutinoside]
- Petunidin and malvidin, the methylated derivatives of delphinidin, in assay reactions (Petunia FMT (E20) [1]; crude homogenates from pCGP3086 cells, 14C-SAM): detected
- Malvidin (product on TLC) (Petunia FMT (E20) [1]; [4]): yes
- Petunidin (product on TLC) (Petunia FMT (E20) [1]; [4]): yes
- Malvidin (product on TLC) (Petunia FMT (E20) [1]; [5]): yes
- Petunidin (product on TLC) (Petunia FMT (E20) [1]; [5]): yes
- product of flavonoid methyltransferase activity with the substrate (Torenia FMT (TFMT)): predominantly malvidin
- Predominant FMT Activity (Torenia FMT (TFMT); pCGP3090): 3′5′FMT
- % of anthocyanidin detected cya (Torenia FMT (TFMT); duplicate a/b): 0.0%
- % of anthocyanidin detected del (Torenia FMT (TFMT); duplicate a/b): 13.2% and 14.6%
- % of anthocyanidin detected mal (Torenia FMT (TFMT); duplicate a/b): 80.9% and 79.1%
- % of anthocyanidin detected peo (Torenia FMT (TFMT); duplicate a/b): 1.9%
- % of anthocyanidin detected pet (Torenia FMT (TFMT); duplicate a/b): 4.0% and 4.3%
- Anthocyanidins (mg/g) Cya (Torenia FMT (TFMT); [6]): 0 mg/g
- Anthocyanidins (mg/g) Del (Torenia FMT (TFMT); [6]): 2.5 mg/g and 2.8 mg/g
- Anthocyanidins (mg/g) Mal (Torenia FMT (TFMT); [6]): 15.6 mg/g and 15.1 mg/g
- Anthocyanidins (mg/g) Peo (Torenia FMT (TFMT); [6]): 0.4 mg/g
- Anthocyanidins (mg/g) Pet (Torenia FMT (TFMT); [6]): 0.8 mg/g
- product of flavonoid methyltransferase activity with the substrate (Petunia FMT (E20) [2]): predominantly petunidin
- Predominant FMT Activity (Petunia FMT (E20) [2]; pCGP3086): 3′FMT
- % of anthocyanidin detected cya (Petunia FMT (E20) [2]; duplicate a/b): 2.5%
- % of anthocyanidin detected del (Petunia FMT (E20) [2]; duplicate a/b): 21.2% and 21.7%
- % of anthocyanidin detected mal (Petunia FMT (E20) [2]; duplicate a/b): 16.6% and 17.4%
- % of anthocyanidin detected peo (Petunia FMT (E20) [2]; duplicate a/b): 1.2% and 1.1%
- % of anthocyanidin detected pet (Petunia FMT (E20) [2]; duplicate a/b): 58.5% and 57.4%
- Anthocyanidins (mg/g) Cya (Petunia FMT (E20) [2]; [7]): 0.4 mg/g and 0.5 mg/g
- Anthocyanidins (mg/g) Del (Petunia FMT (E20) [2]; [7]): 3.7 mg/g and 4.5 mg/g
- Anthocyanidins (mg/g) Mal (Petunia FMT (E20) [2]; [7]): 2.9 mg/g and 3.6 mg/g
- Anthocyanidins (mg/g) Peo (Petunia FMT (E20) [2]; [7]): 0.2 mg/g
- Anthocyanidins (mg/g) Pet (Petunia FMT (E20) [2]; [7]): 10.2 mg/g and 11.9 mg/g

SMILES: O=C1c2c(O)cc(O)cc2O[C@H](c2cc(O)c(O)c(O)c2)[C@H]1O [DHM, dihydromyricetin]
- TLC analysis of the anthocyanidins in the pink/purple segments (rose petals; petal segments of commercial rose cultivars, 1-2 mg/mL): production of delphinidin
- Color at cut edge after incubation in DHM (rose petals; [8]): pink/purple
- Color at cut edge upon production of delphinidin (rose petals; rose cultivar Lambada (orange petal)): pink/purple
- Color at cut edge after incubation in DHM (rose petals; rose cultivar Medeo (pale apricot petal), 1-2 mg/mL): pink/purple
- Color at cut edge after incubation in DHM (rose petals; rose cultivar Mystique (apricot petal), 1-2 mg/mL): pink/purple
- Color at cut edge after incubation in DHM (rose petals; rose cultivar Oceana (cream petal), 1-2 mg/mL): pink/purple
- Color at cut edge after incubation in DHM (rose petals; rose cultivar Pamela (white/pale pink petal), 1-2 mg/mL): pink/purple
- Color at cut edge after incubation in DHM (rose petals; rose cultivar Sonia (apricot/pink petal), 1-2 mg/mL): pink/purple
- Color at cut edge after incubation in DHM (rose petals; [9]): pink/purple
- Color at cut edge upon production of delphinidin (rose petals; rose cultivar Toplesse (pink petal)): pink/purple

SMILES: OC[C@H]1O[C@@H](Oc2cc3c(O[C@@H]4O[C@H](CO)[C@@H](O)[C@H](O)[C@H]4O)cc(O)cc3[o+]c2-c2cc(O)c(O)c(O)c2)[C@H](O)[C@@H](O)[C@@H]1O [D35G, delphinidin 3,5-diglucoside]
- product of flavonoid methyltransferase activity with the substrate (Torenia FMT (TFMT)): predominantly malvidin
- Predominant FMT Activity (Torenia FMT (TFMT); pCGP3090): 3′5′FMT
- % of anthocyanidin detected cya (Torenia FMT (TFMT); duplicate a/b): 0.0%
- % of anthocyanidin detected peo (Torenia FMT (TFMT); duplicate a/b): 0.0%
- % of anthocyanidin detected del (Torenia FMT (TFMT); [10]): 22.9% and 28.9%
- % of anthocyanidin detected mal (Torenia FMT (TFMT); [10]): 70.0% and 66.9%
- % of anthocyanidin detected pet (Torenia FMT (TFMT); [10]): 7.1% and 4.3%
- Anthocyanidins (mg/g) Cya (Torenia FMT (TFMT); [6]): 0 mg/g
- Anthocyanidins (mg/g) Peo (Torenia FMT (TFMT); [6]): 0 mg/g
- Anthocyanidins (mg/g) Mal (Torenia FMT (TFMT); [11]): 7.3 mg/g and 12.4 mg/g
- Anthocyanidins (mg/g) Pet (Torenia FMT (TFMT); [11]): 0.7 mg/g and 0.8 mg/g
- COLOR ([3]; pH 4.6): violet
- RHSCC# ([3]; pH 4.6): 88A
- COLOR ([3]; pH 4.9): violet
- RHSCC# ([3]; pH 4.9): 88A
- product of flavonoid methyltransferase activity with the substrate (Petunia FMT (E20) [2]): predominantly petunidin
- Predominant FMT Activity (Petunia FMT (E20) [2]; pCGP3086): 3′FMT
- % of anthocyanidin detected peo (Petunia FMT (E20) [2]; duplicate a/b): 0.0%
- % of anthocyanidin detected cya (Petunia FMT (E20) [2]; [10]): 0.0% and 2.2%
- % of anthocyanidin detected del (Petunia FMT (E20) [2]; [10]): 45.6% and 55.9%
- % of anthocyanidin detected mal (Petunia FMT (E20) [2]; [10]): 11.0% and 6.0%
- % of anthocyanidin detected pet (Petunia FMT (E20) [2]; [10]): 43.4% and 35.9%
- Anthocyanidins (mg/g) Peo (Petunia FMT (E20) [2]; [7]): 0 mg/g
- Anthocyanidins (mg/g) Mal (Petunia FMT (E20) [2]; pCGP3086, substrate 2 mg/mL, SAM 2 mg/mL, duplicate a/b, listed as D3, 5G): 0.7 mg/g and 1.1 mg/g

SMILES: COc1cc(-c2[o+]c3cc(O)cc(O[C@@H]4O[C@H](CO)[C@@H](O)[C@H](O)[C@H]4O)c3cc2O[C@@H]2O[C@H](CO)[C@@H](O)[C@H](O)[C@H]2O)cc(OC)c1O [M35G, malvidin 3,5-diglucoside]
- Color at cut edge after incubation with malvidin (rose petals; [8]): violet/purple
- Color at cut edge after incubation with malvidin (rose petals; [9]): violet/purple
- COLOR ([3]; pH 4.6): violet-blue
- COLOR ([3]; pH 4.9): violet-blue
- RHSCC# ([3]; pH 4.9): 90A

From patent US7807877B2, “Genetic sequences having methyltransferase activity and uses therefor” (International Flower Developments Pty. Ltd., priority 2002, dated 2010)
